According to ChEMBL document CHEMBL1201862, “PubChem BioAssay data set” (2004):
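In this assay, cells in 96-well plates receive the compound at five concentrations for 48 hours. Endpoints are linearly interpolated between the surrounding concentrations. GI50: concentration for 50% inhibition of growth.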 The source made the active and inactive calls. Rule as the data show it: active = GI50 up to about 1.1 µM and inactive = higher.

Columns and labels:
Assay in all cases: inhibition of tumour cell growth, NCI panel, 48 h
786-0 = tested on: 786-0
A498 = tested on: A498
A549 = tested on: A549
ACHN = tested on: ACHN
CCRF-CEM = tested on: CCRF-CEM
DLD-1 = tested on: DLD-1
DMS-114 = tested on: DMS-114
EKVX = tested on: EKVX
HCC 2998 = tested on: HCC 2998
HCT-116 = tested on: HCT-116
HCT-15 = tested on: HCT-15
HL-60 = tested on: HL-60
HOP-18 = tested on: HOP-18
HOP-92 = tested on: HOP-92
HT-29 = tested on: HT-29
IGROV-1 = tested on: IGROV-1
K562 = tested on: K562
KM-20L2 = tested on: KM-20L2
KM12 = tested on: KM12
LOX IMVI = tested on: LOX IMVI
LXFL 529 = tested on: LXFL 529
M14 = tested on: M14
M19-MEL = tested on: M19-MEL
MOLT-4 = tested on: MOLT-4
Malme-3M = tested on: Malme-3M
NCI-H23 = tested on: NCI-H23
NCI-H460 = tested on: NCI-H460
NCI-H522 = tested on: NCI-H522
OVCAR-3 = tested on: OVCAR-3
OVCAR-5 = tested on: OVCAR-5
OVCAR-8 = tested on: OVCAR-8
RPMI-8226 = tested on: RPMI-8226
RXF 393 = tested on: RXF 393
RXF 631 = tested on: RXF 631
SF-268 = tested on: SF-268
SF-295 = tested on: SF-295
SF-539 = tested on: SF-539
SK-MEL-28 = tested on: SK-MEL-28
SK-MEL-2 = tested on: SK-MEL-2
SK-MEL-5 = tested on: SK-MEL-5
SK-OV-3 = tested on: SK-OV-3
SN12C = tested on: SN12C
SNB-19 = tested on: SNB-19
SNB-75 = tested on: SNB-75
SR = tested on: SR
SW-620 = tested on: SW-620
TK-10 = tested on: TK-10
U-251 = tested on: U-251
UACC-257 = tested on: UACC-257
UACC-62 = tested on: UACC-62
UO-31 = tested on: UO-31
XF498 = tested on: XF498
CAKI-1 = tested on: CAKI-1
COLO 205 = tested on: COLO 205
DMS-273 = tested on: DMS-273
HOP-62 = tested on: HOP-62
NCI-H226 = tested on: NCI-H226
OVCAR-4 = tested on: OVCAR-4
SNB-78 = tested on: SNB-78

In the case of `COC(=O)c1nc(N)nc(C(=O)OC)c1C(=O)c1ccccc1`, the GI50 (786-0) is reported as > 100 µM (inactive), the GI50 (A498) is reported as > 100 µM (inactive) and the GI50 (A549) is reported as > 100 µM (inactive). The GI50 (ACHN) was > 100 µM (inactive), the GI50 (CCRF-CEM) was > 100 µM (inactive) and the GI50 (DLD-1) was > 100 µM (inactive). The GI50 (DMS-114) was > 100 µM (inactive), the GI50 (EKVX) was > 100 µM (inactive) and the GI50 (HCC 2998) was > 100 µM (inactive). For the same compound, the GI50 (HCT-116) was > 100 µM (inactive), the GI50 (HCT-15) was > 100 µM and the GI50 (HL-60) was > 100 µM (inactive). The GI50 (HOP-18) was > 100 µM (inactive), the GI50 (HOP-92) was 96.8 µM (inactive) and the GI50 (HT-29) was > 100 µM (inactive). For the same compound, the GI50 (IGROV-1) was > 100 µM (inactive), the GI50 (K562) was > 100 µM (inactive) and the GI50 (KM-20L2) was > 100 µM (inactive). For the same compound, the GI50 (KM12) was > 100 µM (inactive), the GI50 (LOX IMVI) was > 100 µM (inactive) and the GI50 (LXFL 529) was > 100 µM (inactive). For the same compound, the GI50 (M14) was > 100 µM (inactive), the GI50 (M19-MEL) was > 100 µM (inactive) and the GI50 (MOLT-4) was > 100 µM (inactive). The GI50 (Malme-3M) was > 100 µM (inactive), the GI50 (NCI-H23) was > 100 µM (inactive) and the GI50 (NCI-H460) was > 100 µM (inactive). The GI50 (NCI-H522) was > 100 µM (inactive), the GI50 (OVCAR-3) was > 100 µM (inactive) and the GI50 (OVCAR-5) was > 100 µM (inactive). The GI50 (OVCAR-8) was > 100 µM (inactive), the GI50 (RPMI-8226) was > 100 µM (inactive) and the GI50 (RXF 393) was > 100 µM (inactive). For the same compound, the GI50 (RXF 631) was > 100 µM (inactive), the GI50 (SF-268) was > 100 µM (inactive) and the GI50 (SF-295) was > 100 µM (inactive). The GI50 (SF-539) was > 100 µM (inactive), the GI50 (SK-MEL-28) was > 100 µM (inactive) and the GI50 (SK-MEL-2) was > 100 µM (inactive). For the same compound, the GI50 (SK-MEL-5) was > 100 µM (inactive), the GI50 (SK-OV-3) was > 100 µM (inactive) and the GI50 (SN12C) was > 100 µM (inactive). The GI50 (SNB-19) was > 100 µM (inactive), the GI50 (SNB-75) was 54.1 µM (inactive) and the GI50 (SR) was > 100 µM (inactive). For the same compound, the GI50 (SW-620) was > 100 µM (inactive), the GI50 (TK-10) was > 100 µM (inactive) and the GI50 (U-251) was > 100 µM (inactive). The GI50 (UACC-257) was > 100 µM (inactive), the GI50 (UACC-62) was > 100 µM (inactive) and the GI50 (UO-31) was > 100 µM (inactive). For the same compound, the GI50 (XF498) was > 100 µM (inactive).
For `CC1=CC(C)(C)N=C2SC(c3ccc(N)cc3)=NN12`, the GI50 (786-0) was 57.1 µM (inactive), the GI50 (A498) was 63.4 µM (inactive) and the GI50 (A549) was 51.9 µM (inactive). The GI50 (ACHN) was 69.3 µM (inactive), the GI50 (CAKI-1) was 61.8 µM (inactive) and the GI50 (CCRF-CEM) was 27.9 µM (inactive). The GI50 (COLO 205) was 42.8 µM (inactive), the GI50 (DLD-1) was 40.1 µM (inactive) and the GI50 (DMS-114) was 32.7 µM (inactive). For the same compound, the GI50 (DMS-273) was > 42.9 µM (inactive), the GI50 (EKVX) was 24.9 µM (inactive) and the GI50 (HCC 2998) was > 100 µM (inactive). For the same compound, the GI50 (HCT-116) was 41 µM (inactive), the GI50 (HCT-15) was 31.6 µM and the GI50 (HL-60) was 18.1 µM (inactive). For the same compound, the GI50 (HOP-18) was 1.47 µM (inactive), the GI50 (HOP-62) was > 100 µM (inactive) and the GI50 (HOP-92) was 51.8 µM (inactive). The GI50 (HT-29) was 32.1 µM (inactive), the GI50 (IGROV-1) was > 100 µM (inactive) and the GI50 (K562) was 32.6 µM (inactive). The GI50 (KM-20L2) was 46.6 µM (inactive), the GI50 (KM12) was > 70.6 µM (inactive) and the GI50 (LOX IMVI) was > 58.5 µM (inactive). The GI50 (LXFL 529) was 31.6 µM (inactive), the GI50 (M14) was > 83.8 µM (inactive) and the GI50 (M19-MEL) was 63.1 µM (inactive). For the same compound, the GI50 (MOLT-4) was 42.2 µM (inactive), the GI50 (Malme-3M) was > 100 µM (inactive) and the GI50 (NCI-H226) was > 94.6 µM (inactive). For the same compound, the GI50 (NCI-H23) was > 81.1 µM (inactive), the GI50 (NCI-H460) was 52.4 µM (inactive) and the GI50 (NCI-H522) was 58.6 µM (inactive). For the same compound, the GI50 (OVCAR-3) was 58.2 µM (inactive), the GI50 (OVCAR-4) was > 93.8 µM (inactive) and the GI50 (OVCAR-5) was 49.7 µM (inactive). The GI50 (OVCAR-8) was 55.7 µM (inactive), the GI50 (RPMI-8226) was 21.1 µM (inactive) and the GI50 (RXF 393) was > 100 µM (inactive). For the same compound, the GI50 (RXF 631) was 50.7 µM (inactive), the GI50 (SF-268) was > 67.6 µM (inactive) and the GI50 (SF-295) was > 91.8 µM (inactive). For the same compound, the GI50 (SF-539) was > 100 µM (inactive), the GI50 (SK-MEL-28) was > 100 µM (inactive) and the GI50 (SK-MEL-5) was 70.3 µM (inactive). For the same compound, the GI50 (SK-OV-3) was > 100 µM (inactive), the GI50 (SN12C) was > 95.9 µM (inactive) and the GI50 (SNB-19) was > 87.3 µM (inactive). For the same compound, the GI50 (SNB-75) was > 52.5 µM (inactive), the GI50 (SNB-78) was > 100 µM (inactive) and the GI50 (SR) was 46.9 µM (inactive). For the same compound, the GI50 (SW-620) was > 41 µM (inactive), the GI50 (TK-10) was > 100 µM (inactive) and the GI50 (U-251) was 59.8 µM (inactive). The GI50 (UACC-257) was > 94 µM (inactive), the GI50 (UACC-62) was 44.6 µM (inactive) and the GI50 (UO-31) was 28 µM (inactive). For the same compound, the GI50 (XF498) was 50.9 µM (inactive).
